How the values were obtained:
Format in all cases: in vivo
Sectaria Viridis - SETVI = test: Greenhouse post-emergence herbicide trial, Sectaria Viridis; details: 200 L/ha
Description: (§1) Standard post emergence herbicide application procedures were used, as described below, to apply inventive compounds in combination with sulfonylurea herbicides.
(§2) Seed of monocotyledonous and dicotyledonous harmful plants such as Brassica napus (BRSNW) Abutilon theophrasti (ABUTH), Alopecurus myosuroides (ALOMY), Amaranthus retroflexus (AMARE), Digitaria Sanguinalis (DIGSA), Echinochloa crus-galli (ECHCG), Erigeron canadensis (ERICA), Galium aparine (GALAP), Lolium perenne (LOLPE), Sectaria viridis (SETVI), Solanun nigrum (SOLNI), Viola arvensis (VIOAR) were sowed in 18 cm^2 pots. The plants were placed in a greenhouse under controlled environmental conditions, and sub-irrigation. About one week after emergence, seedlings were thinned as needed, including removal of any unhealthy or abnormal plants, to create a uniform series of test pots.
(§3) The plants were maintained for the duration of the test in the greenhouse, where they received a mean of 70 μmol m-2 s-1 of light per day/night. Temperatures averages about 24° C. during the day and about 20° C. during the night. Plants were sub-irrigated throughout the test to ensure adequate soil moisture levels.
(§4) Pots were assigned to different treatment in a randomized experimental design. A set of pots was left untreated as a reference against which effects of the treatments could later be evaluated. Application of tested formulations was made in a spray cabin model 01S-15E designed by CheckTec using the following parameters: • Two edge nozzle Lechler OC2, 200 L/ha, 3 bars. • Two edge nozzle Lechler OC3, 500 L/ha, 3 bars.
(§5) The distance of the nozzle from the plants was between 50 to 53 cm. and the nozzle spacing was 50 cm.
(§6) After treatment, pots were returned to the greenhouse until ready for evaluation. Evaluations were performed at different times after application (DAT: days after treatment), depending on the experiment.
(§7) For evaluation of herbicidal effectiveness, all plants in the test were examined by a single technician, who recorded percent control, a visual measurement of the effectiveness of each treatment by comparison with untreated plants. […] The reported % control values represent the average for all replicates of each treatment.
(§8) Iodosulfuron-methyl-sodium and Nicosulfuron were applied as dilutions of the active ingredient in water.

Galium aparine - GALAP = test: Greenhouse post-emergence herbicide trial, Galium aparine; details: 200 L/ha
Description: as §1, §2, §3, §4, §5, §6, §7, §8

Brassica napus - BRSNW = test: Greenhouse post-emergence herbicide trial, Brassica napus; details: 200 L/ha, A1 7.5 % w/w
Description: as §1, §2, §3, §4, §5, §6, §7, §8

Solanum nigrum - SOLNI = test: Greenhouse post-emergence herbicide trial, Solanum nigrum
Description: as §1, §2, §3, §4, §5, §6, §7, §8

Lolium perenne - LOLPE = test: Greenhouse post-emergence herbicide trial, Lolium perenne; details: 200 L/ha, A1 7.5 % w/w
Description: as §1, §2, §3, §4, §5, §6, §7, §8

[1] = Nicosulfuron 40 g Al/ha, 10 DAT
[2] = Nicosulfuron 40 g Al/ha, 16 DAT
[3] = Nicosulfuron 40 g Al/ha, 22 DAT
[4] = Nicosulfuron 40 g Al/ha, 28 DAT

COc1cc(OC)nc(NC(=O)NS(=O)(=O)c2ncccc2C(=O)N(C)C)n1 [Nicosulfuron, nicosulfuron, reference compound]
Effectiveness control (Sectaria Viridis - SETVI; Nicosulfuron 40 g Al/ha, 1 DAT): 0.00%
Effectiveness control (Sectaria Viridis - SETVI; Nicosulfuron 40 g Al/ha, 2 DAT): 0.00%
Effectiveness control (Sectaria Viridis - SETVI; Nicosulfuron 40 g Al/ha, 7 DAT): 5.00%
Effectiveness control (Sectaria Viridis - SETVI; [1]): 7.00%
Effectiveness control (Sectaria Viridis - SETVI; [2]): 10.75%
Effectiveness control (Sectaria Viridis - SETVI; [3]): 7.75%
Effectiveness control (Sectaria Viridis - SETVI; [4]): 7.00%
Effectiveness control (Galium aparine - GALAP; Nicosulfuron 40 g Al/ha, 1 DAT): 0.00%
Effectiveness control (Galium aparine - GALAP; Nicosulfuron 40 g Al/ha, 2 DAT): 0.00%
Effectiveness control (Galium aparine - GALAP; Nicosulfuron 40 g Al/ha, 7 DAT): 3.00%
Effectiveness control (Galium aparine - GALAP; [1]): 10.00%
Effectiveness control (Galium aparine - GALAP; [2]): 12.75%
Effectiveness control (Galium aparine - GALAP; [3]): 12.75%
Effectiveness control (Galium aparine - GALAP; [4]): 12.75%

Pelargonic acid 6 EO ester methyl ether [A1]
Effectiveness control (Brassica napus - BRSNW; 1 DAT): 74.25%
Effectiveness control (Brassica napus - BRSNW; 2 DAT): 78.00%
Effectiveness control (Brassica napus - BRSNW; 7 DAT): 75.00%
Effectiveness control (Brassica napus - BRSNW; 10 DAT): 56.25%
Effectiveness control (Brassica napus - BRSNW; 16 DAT): 39.25%
Effectiveness control (Brassica napus - BRSNW; 22 DAT): 33.50%
Effectiveness control (Brassica napus - BRSNW; 28 DAT): 32.50%
Effectiveness control (Solanum nigrum - SOLNI; 200 L/ha, A1 0.1 % w/w, 1 DAT): 0.00%
Effectiveness control (Solanum nigrum - SOLNI; 200 L/ha, A1 0.1 % w/w, 2 DAT): 0.00%
Effectiveness control (Solanum nigrum - SOLNI; 200 L/ha, A1 0.1 % w/w, 7 DAT): 0.00%
Effectiveness control (Solanum nigrum - SOLNI; 200 L/ha, A1 0.1 % w/w, 15 DAT): 0.00%
Effectiveness control (Solanum nigrum - SOLNI; 200 L/ha, A1 0.1 % w/w, 21 DAT): 0.00%
Effectiveness control (Solanum nigrum - SOLNI; 200 L/ha, A1 2.5 % w/w, 1 DAT): 0.00%
Effectiveness control (Solanum nigrum - SOLNI; 200 L/ha, A1 2.5 % w/w, 2 DAT): 0.00%
Effectiveness control (Solanum nigrum - SOLNI; 200 L/ha, A1 2.5 % w/w, 7 DAT): 0.00%
Effectiveness control (Solanum nigrum - SOLNI; 200 L/ha, A1 2.5 % w/w, 15 DAT): 0.00%
Effectiveness control (Solanum nigrum - SOLNI; 200 L/ha, A1 2.5 % w/w, 21 DAT): 0.00%
Effectiveness control (Solanum nigrum - SOLNI; 200 L/ha, A1 5 % w/w, 1 DAT): 0.75%
Effectiveness control (Solanum nigrum - SOLNI; 200 L/ha, A1 5 % w/w, 2 DAT): 3.50%
Effectiveness control (Solanum nigrum - SOLNI; 200 L/ha, A1 5 % w/w, 7 DAT): 3.50%
Effectiveness control (Solanum nigrum - SOLNI; 200 L/ha, A1 5 % w/w, 15 DAT): 0.00%
Effectiveness control (Solanum nigrum - SOLNI; 200 L/ha, A1 5 % w/w, 21 DAT): 0.00%
Effectiveness control (Solanum nigrum - SOLNI; 200 L/ha, A1 10 % w/w, 1 DAT): 25.00%
Effectiveness control (Solanum nigrum - SOLNI; 200 L/ha, A1 10 % w/w, 2 DAT): 48.50%
Effectiveness control (Solanum nigrum - SOLNI; 200 L/ha, A1 10 % w/w, 7 DAT): 50.50%
Effectiveness control (Solanum nigrum - SOLNI; 200 L/ha, A1 10 % w/w, 15 DAT): 47.50%
Effectiveness control (Solanum nigrum - SOLNI; 200 L/ha, A1 10 % w/w, 21 DAT): 38.75%
Effectiveness control (Solanum nigrum - SOLNI; 500 L/ha, A1 0.1 % w/w, 1 DAT): 0.00%
Effectiveness control (Solanum nigrum - SOLNI; 500 L/ha, A1 0.1 % w/w, 2 DAT): 0.00%
Effectiveness control (Solanum nigrum - SOLNI; 500 L/ha, A1 0.1 % w/w, 7 DAT): 0.00%
Effectiveness control (Solanum nigrum - SOLNI; 500 L/ha, A1 0.1 % w/w, 15 DAT): 0.00%
Effectiveness control (Solanum nigrum - SOLNI; 500 L/ha, A1 0.1 % w/w, 21 DAT): 0.00%
Effectiveness control (Solanum nigrum - SOLNI; 500 L/ha, A1 2.5 % w/w, 1 DAT): 10.00%
Effectiveness control (Solanum nigrum - SOLNI; 500 L/ha, A1 2.5 % w/w, 2 DAT): 21.25%
Effectiveness control (Solanum nigrum - SOLNI; 500 L/ha, A1 2.5 % w/w, 7 DAT): 13.75%
Effectiveness control (Solanum nigrum - SOLNI; 500 L/ha, A1 2.5 % w/w, 15 DAT): 7.75%
Effectiveness control (Solanum nigrum - SOLNI; 500 L/ha, A1 2.5 % w/w, 21 DAT): 5.00%
Effectiveness control (Solanum nigrum - SOLNI; 500 L/ha, A1 5 % w/w, 1 DAT): 26.00%
Effectiveness control (Solanum nigrum - SOLNI; 500 L/ha, A1 5 % w/w, 2 DAT): 42.50%
Effectiveness control (Solanum nigrum - SOLNI; 500 L/ha, A1 5 % w/w, 7 DAT): 32.50%
Effectiveness control (Solanum nigrum - SOLNI; 500 L/ha, A1 5 % w/w, 15 DAT): 28.75%
Effectiveness control (Solanum nigrum - SOLNI; 500 L/ha, A1 5 % w/w, 21 DAT): 27.50%
Effectiveness control (Solanum nigrum - SOLNI; 500 L/ha, A1 10 % w/w, 1 DAT): 65.50%
Effectiveness control (Solanum nigrum - SOLNI; 500 L/ha, A1 10 % w/w, 2 DAT): 75.50%
Effectiveness control (Solanum nigrum - SOLNI; 500 L/ha, A1 10 % w/w, 7 DAT): 72.50%
Effectiveness control (Solanum nigrum - SOLNI; 500 L/ha, A1 10 % w/w, 15 DAT): 63.75%
Effectiveness control (Solanum nigrum - SOLNI; 500 L/ha, A1 10 % w/w, 21 DAT): 53.00%
Effectiveness control (Sectaria Viridis - SETVI; A1 7.5 % w/w, 1 DAT): 19.25%
Effectiveness control (Sectaria Viridis - SETVI; A1 7.5 % w/w, 2 DAT): 21.25%
Effectiveness control (Sectaria Viridis - SETVI; A1 7.5 % w/w, 7 DAT): 21.25%
Effectiveness control (Sectaria Viridis - SETVI; A1 7.5 % w/w, 10 DAT): 20.00%
Effectiveness control (Sectaria Viridis - SETVI; A1 7.5 % w/w, 16 DAT): 16.00%
Effectiveness control (Sectaria Viridis - SETVI; A1 7.5 % w/w, 22 DAT): 16.00%
Effectiveness control (Sectaria Viridis - SETVI; A1 7.5 % w/w, 28 DAT): 0.00%
Effectiveness control (Lolium perenne - LOLPE; 1 DAT): 11.50%
Effectiveness control (Lolium perenne - LOLPE; 2 DAT): 11.50%
Effectiveness control (Lolium perenne - LOLPE; 7 DAT): 5.00%
Effectiveness control (Lolium perenne - LOLPE; 10 DAT): 0.00%
Effectiveness control (Lolium perenne - LOLPE; 16 DAT): 0.00%
Effectiveness control (Lolium perenne - LOLPE; 22 DAT): 0.00%
Effectiveness control (Lolium perenne - LOLPE; 28 DAT): 0.00%
Effectiveness control (Galium aparine - GALAP; A1 7.5 % w/w, 1 DAT): 31.75%
Effectiveness control (Galium aparine - GALAP; A1 7.5 % w/w, 2 DAT): 34.00%
Effectiveness control (Galium aparine - GALAP; A1 7.5 % w/w, 7 DAT): 35.75%
Effectiveness control (Galium aparine - GALAP; A1 7.5 % w/w, 10 DAT): 20.00%
Effectiveness control (Galium aparine - GALAP; A1 7.5 % w/w, 16 DAT): 10.75%
Effectiveness control (Galium aparine - GALAP; A1 7.5 % w/w, 22 DAT): 10.75%
Effectiveness control (Galium aparine - GALAP; A1 7.5 % w/w, 28 DAT): 10.75%

— patent US20220151229A1, “Synergistic Herbicidal Combinations” (Clariant International Ltd., priority 2019, published 2022)
